Measured values from US12667574B2, “Paraxanthine-based bioactive composition and method of use thereof” (PX ING, LLC, priority 2021, dated 2026).

Assays:
[1] = test system: acetylcholine (Ach); assay: Acetylcholine concentration (second Example 4); format: in vivo, rats; conditions: oral 14 days
Experimental: (§1) Distilled water was provided ad libitum. […] Ltd (Bangalore, India).
(§2) The following HED were used in this study: 50 mg paraxanthine, (ENFINITY™, Ingenious Ingredients, L.P Lewisville, TX, USA; rat dose: 5.141 mg/kg bw/day); 25 mg L-Theanine (rat dose: 2.570 mg/kg bw), and 50 mg paraxanthine plus 25 mg L-Theanine. 0.5% Carboxy Methyl Cellulose sodium was used as vehicle and the test item formulations were prepared daily. […] The last dose on day 14 was given 1 hour prior to testing.

[2] = test system: male Swiss Albino mice; assay: Treadmill endurance test (first Example 4, L-Theanine); format: in vivo; conditions: oral once daily 28 days, HED 50 mg paraxanthine, 25 mg L-Theanine
Experimental: as §1
The following HED were used in this study: 50 mg paraxanthine, (ENFINITY™ Ingenious Ingredients, L.P Lewisville, TX, USA; mouse dose: 10.275 mg/kg bw/day); 25 mg L-Theanine (mouse dose: 5.137 mg/kg bw), and 50 mg paraxanthine plus 25 mg L-Theanine. 0.5% Carboxy Methyl Cellulose sodium was used as vehicle and the test item formulations were prepared daily.
During the treatment period, exercise training was completed using a motorized treadmill (Exer 3/6, Columbus Instruments international, OH, USA) at a moderate intensity of 20 cm/sec as maximal running speed, an incline of ten degrees and a shock intensity of 0.2 mA, for ten minutes. The speed of the treadmill was manually adjusted by increasing the belt speed by 5 cm/sec every two minutes throughout the total duration of ten minutes. All animals were adapted to this procedure daily 60 minutes after dosing for five days in a week during the treatment period. 1.3. Treadmill Endurance Test
Muscle endurance was accomplished on a motorized treadmill at a low to moderate intensity of 5-50 cm/sec as maximal running speed, an incline of ten degrees and a shock intensity of 0.2 mA, with the belt speed being increased by 5 cm/sec every two minutes until it reaches 50 cm/sec. Animals were subjected to the treadmill test until exhaustion.

[3] = test system: brain derived neuro factor, BDNF; assay: BDNF level, neuroplasticity (second Example 4); format: in vivo, rats; conditions: oral 14 days
Experimental: as §1, §2

[4] = test system: dopamine (dopa); assay: Dopamine concentration (second Example 4); format: in vivo, rats; conditions: oral 14 days
Experimental: as §1, §2

[5] = test system: glutathione (GSH); assay: Glutathione level (second Example 4); format: in vivo, rats; conditions: oral 14 days
Experimental: as §1, §2

[6] = test system: male Swiss Albino Wistar rats; assay: Walter Morris Maze test (second Example 4, L-Theanine); format: in vivo; conditions: oral 14 days
Experimental: as §1, §2
The Walter Morris Maze test consisted of a circular pool in a room with geometric shapes on the wall serving as spatial cues. The pool, which is 70 cm in diameter and painted with black color, filled with 13 cm depth of 25±1° C. water. A platform (6 cm diameter) was placed into one quadrant of the pool and submerged 1 cm below the water surface. For the training, all rats were trained to locate the submerged platform in a constant location. The training day consisted of four trials. During training, a rat started at one of four starting points and allowed to swim until it located the platform or until 60 seconds had elapsed. The rat was allowed to remain on the platform for 15 seconds before being dried off and later was transferred to a holding cage. […] The animals were continuously trained 4 times at 4 starting points continued daily for 4 days, the main trial was conducted on the 15th & 16th day and the latency of escaping onto the platform was recorded.

For `CCNC(=O)CC[C@H](N)C(=O)O` [L-Theanine, N5-ethyl-L-glutamine, reference compound], the “acetylcholine (Ach) concentration” value ([1]; old rats) was 55.89±1.05 U/mL, the “acetylcholine (Ach) concentration” value ([1]; young rats) was 62.83±0.91 U/mL and the “distance travelled during treadmill exercise” value [2] was 295.17±6.11 m. The BDNF ([3]; old rats) was 789.1 ± 2.03 pg/mL, the BDNF ([3]; young rats) was 866 ± 8.66 pg/mL and the “dopamine (dopa) concentration” value ([4]; old rats) was 473.03 ± 6.05 ng/L. For the same molecule, the “dopamine (dopa) concentration” value ([4]; young rats) was 528.18 ± 4.09 ng/L, the “glutathione (GSH) level” value ([5]; old rats) was 23.87 ± 0.45 µg/mL and the “glutathione (GSH) level” value ([5]; young rats) was 31.72 ± 0.53 µg/mL. It also gave an escape latency ([6]; old rats (16-month-old)) of 44.67 ± 2.16 s and an escape latency ([6]; young rats (8-week-old)) of 38.33 ± 2.07 s.
